Holding throughout (test): NCI tumour cell line growth inhibition, 48 h
Assay [1] relates to SNB-75.
Assay [2] deals with MCF7.
Assay [3] deals with A498.
The subject of assay [4] is CCRF-CEM.
The subject of assay [5] is COLO 205.
For assay [6], the system named is MDA-MB-231.
Assay [7] concerns NCI-H23.
Assay [8] has as its system KM12.
Assay [9] has as its system M14.
In assay [10] the test system is NCI-H460.
Assay [11] relates to DU-145.
The test system of assay [12] is NCI/ADR-RES.
Assay [13] relates to OVCAR-3.
For assay [14], the system named is HCT-116.
The test system of assay [15] is SK-MEL-5.
The subject of assay [16] is OVCAR-5.
Assay [17] deals with BT-549.
Assay [18] has as its system SNB-19.

Molecules are shown by their SMILES.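 Cultured in 96-well plates, cells were exposed to test compound for 48 hours across five concentrations. GI50 marks 50% less growth.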 The source made the active and inactive calls. No stated cut-off is given here; in the data, active = GI50 up to about 1.1 µM and inactive = higher. Starred links: 1 amine or outer side, 2 acyl side, 3 side chain; linkers in the order of their positions; H or OH if unused. Non-standard residues stand in square brackets, D forms with d. Residues, ends and D or L forms follow the SMILES beside them. X4 = C[C@H](N[*:1])C(=O)C(C)(C)C(=O)[*:2]; Hmpa(2S,3S) = CC[C@H](C)[C@H](O)C(=O)O; NMeY = CN[C@@H](Cc1ccc(O)cc1)C(=O)O; NMeL = CN[C@@H](CC(C)C)C(=O)O; NMeV = CN[C@H](C(=O)O)C(C)C; βAla = NCCC(=O)O

As to `COc1ccc(-n2c(=O)c3nc(S)[nH]c3n(-c3ccc(OC)cc3)c2=S)cc1`, the GI50 in [1], in [2], in assay [3], in [4], in assay [5] and in [6] was > 100 µM (inactive) in each case. The GI50 in assay [7], in assay [8], in assay [9], in [10], in assay [11] and in assay [12] was > 100 µM (inactive) in each case. Also, the GI50 in assay [13], in assay [14], in assay [15], in [16] and in assay [17] was > 100 µM (inactive) in each case.

For `Cc1cc2ncn(CC(=O)O)c2cc1C`, the GI50 in assay [1], in [2], in [3], in [4], in [5] and in assay [6] was > 100 µM (inactive) each time. Besides, the GI50 in assay [7], in assay [8], in assay [9], in [10], in assay [11] and in [12] was > 100 µM (inactive) in each case. Moreover, the GI50 in assay [13], in assay [18], in assay [14], in assay [15], in [16] and in assay [17] was > 100 µM (inactive) each time.

For the compound `CC(=O)C1C(=O)C(C(C)=O)C2C3C=CC(C3)C12` (configuration not stated), the GI50 in [1], in [2], in assay [3], in [4], in assay [5] and in assay [6] was > 100 µM (inactive) throughout. Besides, the GI50 in assay [7], in assay [8], in assay [10], in [11], in [12] and in [13] was > 100 µM (inactive) in each case. Further, the GI50 in assay [18], in [14], in assay [15], in [16] and in [17] was > 100 µM (inactive) in each case.

As for `Cc1c2c(OCC3CCCCO3)nn(C)c(=O)c2c(C)n1-c1ccccc1` (configuration not stated), the GI50 was 13 µM (inactive) in [1]; 14.9 µM (inactive) in assay [2]; 14.9 µM (inactive) in [3]; 17.4 µM (inactive) in assay [5]; 17.7 µM (inactive) in assay [6]; 20 µM (inactive) in [7]. For the same compound, the GI50 in [8] is 18.6 µM (inactive); in assay [9], 19.1 µM (inactive); in assay [10], 14.7 µM (inactive); in assay [11], 17.7 µM (inactive); in [12], 21.3 µM (inactive); in [13] it was 16.7 µM (inactive). Moreover, the GI50 was 21.7 µM (inactive) in [18]; 17 µM (inactive) in [14]; 15.1 µM (inactive) in assay [15]; 17.4 µM (inactive) in assay [16]; 19.7 µM (inactive) in assay [17].

In the case of `O=C(CN1CCOCC1)CC(O)(C(F)(F)F)C(F)(F)F`, the GI50 in assay [1] was 38.6 µM (inactive); in assay [2], > 100 µM (inactive); in assay [3] it was > 100 µM (inactive); in [4], 56.4 µM (inactive); in assay [5], > 100 µM (inactive); in assay [6] it was > 100 µM (inactive). The GI50 is 33.5 µM (inactive) in assay [7]; 77.8 µM (inactive) in assay [8]; > 100 µM (inactive) in [9]; > 100 µM (inactive) in assay [11]; > 100 µM (inactive) in assay [12]; 35.9 µM (inactive) in assay [13]. In addition, the GI50 in [18] was 65.9 µM (inactive); in [14] it was 44.9 µM (inactive); in assay [15] it was 47.6 µM (inactive); in assay [16], > 100 µM (inactive); in assay [17], > 100 µM (inactive).

Consider `COc1cc2ccc1OCc1cccc(n1)COc1ccc(cc1OC)/C=N\c1ccc(cc1)-c1ccc(cc1)/N=C\2`, for which the GI50 in assay [1], in assay [2], in assay [3], in assay [4], in assay [5] and in [6] was > 100 µM (inactive) each time. Also, the GI50 in [7], in assay [8], in assay [9], in assay [10], in assay [11] and in [12] was > 100 µM (inactive) in each case. Further, the GI50 in assay [13], in assay [18], in assay [14], in assay [15] and in assay [17] was > 100 µM (inactive) each time.

Regarding `O=C(O)CCN1CCN(CCC(=O)O)CCN(CCC(=O)O)CC1`, the GI50 in assay [1] is 45.8 µM (inactive); in [2], 98.2 µM (inactive); in assay [3], > 100 µM (inactive); in assay [4], > 100 µM (inactive); in assay [5], 92.7 µM (inactive); in [6], > 100 µM (inactive). For the same compound, the GI50 is 69.7 µM (inactive) in [8]; > 100 µM (inactive) in assay [9]; 56.2 µM (inactive) in [10]; > 100 µM (inactive) in assay [11]; > 100 µM (inactive) in [12]; > 100 µM (inactive) in assay [13]. In addition, the GI50 in assay [18] was > 100 µM (inactive); in assay [14] it was 32.6 µM (inactive); in [15] it was 74 µM (inactive); in [16], > 100 µM (inactive); in assay [17], > 100 µM (inactive).

Regarding `O=c1c2cc(-c3ccccc3)cnc2sn1-c1ccc(Oc2ccccc2)cc1`, the GI50 in [1] is 32 µM (inactive); in [2], 52.5 µM (inactive); in assay [3] it was 25.3 µM (inactive); in assay [4], 27.3 µM (inactive); in assay [5] it was > 100 µM (inactive); in [6], 14.5 µM (inactive). Further, the GI50 in assay [7] is 61 µM (inactive); in assay [8] it was 48.5 µM (inactive); in assay [9], 46.3 µM (inactive); in assay [10] it was > 100 µM (inactive); in [11] it was 80.9 µM (inactive); in assay [12], 27 µM (inactive). In addition, the GI50 was 31.5 µM (inactive) in assay [13]; 19.2 µM (inactive) in assay [18]; 51.9 µM (inactive) in assay [14]; 65.2 µM (inactive) in [16]; 23.2 µM (inactive) in assay [17].

Regarding `Cc1cccc(N2CCN(S(=O)(=O)c3ccc(Cl)cc3)C2=N)c1C`, the GI50 was > 100 µM (inactive) in assay [1]; > 100 µM (inactive) in [2]; > 100 µM (inactive) in assay [3]; > 100 µM (inactive) in assay [5]; > 100 µM (inactive) in [6]; 96.4 µM (inactive) in assay [7]. For the same compound, the GI50 in assay [8] was > 100 µM (inactive); in assay [9], > 100 µM (inactive); in assay [11] it was 93.3 µM (inactive); in assay [12] it was > 100 µM (inactive); in [18] it was > 100 µM (inactive); in assay [14], > 100 µM (inactive). Further, the GI50 in assay [15], in [16] and in assay [17] was > 100 µM (inactive) throughout.

With `C1=C2C3=[N+](CCCC3)CC2Cc2ccsc21` (configuration not stated), the GI50 was 93.8 µM (inactive) in [1]; > 100 µM (inactive) in [2]; 52.8 µM (inactive) in assay [3]; > 100 µM (inactive) in [4]; > 100 µM (inactive) in assay [5]; > 100 µM (inactive) in assay [6]. Besides, the GI50 in assay [7] is > 100 µM (inactive); in assay [8], 42.4 µM (inactive); in assay [9] it was 71.3 µM (inactive); in assay [10], 38 µM (inactive); in assay [11] it was > 100 µM (inactive); in assay [12], > 100 µM (inactive). The GI50 in assay [13] was 84.1 µM (inactive); in assay [18] it was 56.2 µM (inactive); in assay [14] it was > 100 µM (inactive); in [15], 66.5 µM (inactive); in assay [16] it was > 100 µM (inactive); in assay [17] it was 81.3 µM (inactive).

As to `CC[C@H](C)[C@@H]1OC(=O)CCNC(=O)[C@@H](C)NC(=O)C(C)(C)C(=O)[C@H](C)NC(=O)[C@H](Cc2ccc(OC)cc2)N(C)C(=O)[C@H](C(C)C)N(C)C(=O)CNC(=O)[C@H](CC(C)C)N(C)C(=O)CNC1=O` (cyclo(G[NMeL]G[NMeV][NMeY](Me)[X4][dA][βAla][Hmpa(2S,3S)])), the GI50 in assay [1] is 0.348 µM (active); in assay [2], 0.387 µM (active); in [3], 1.38 µM (inactive); in [4] it was 0.0568 µM (active); in [5], 0.0252 µM (active); in [6], 0.476 µM (active). For the same compound, the GI50 is 0.262 µM (active) in [7]; 0.885 µM (active) in [9]; 0.0615 µM (active) in assay [10]; 2.71 µM (inactive) in [11]; 26.4 µM (inactive) in assay [12]; 0.621 µM (active) in [13]. The GI50 is 0.111 µM (active) in [18]; 0.0352 µM (active) in [14]; 0.0879 µM (active) in assay [15]; 0.724 µM (active) in assay [16]; 2.81 µM (inactive) in [17].
